Assay type in all cases: binding
In one test the target is dopamine D2-receptors (Rattus norvegicus, UniProt P61169). The experiment in a line: affinity for dopamine D2-receptors by displacement experiments with [3H]-spiperone (rat striatum membranes). As to conditions: for Ki: [3H]-spiperone, high-affinity form of the dopamine receptor; for α2-IC50 / D2-Ki: relative affinity for dopamine-D2 receptors compared with α2-adrenoceptors, the higher, the higher the D2/α2 selectivity. The protocol:
1Determining the affinity for dopamine D2-receptors by displacement experiments with [^3 H]-spiperone (Modified Method of W. Billard et al., Life Sci. 35, 1885 (1984) and D. J. de Vries and P. M. Beart, Eur. J. Pharmacol. 109, 417 (1985))
(§1) Male rats (of the Chbb:Thom strain weighing about 200 g) were killed by a blow to the back of the neck. The brains were removed and dissected on ice. The striata were dissected out, weighed and homogenised in 25 volumes of tris buffer (50 mM tris-HCl, 1 mM EDTA, 5 mM MgCl2 and 1 mM ascorbic acid) for 30 seconds in an Ultra-Turrax at maximum speed, followed by 10 cycles in a Potter-Elvehjem at 1400 rpm. The pellet obtained after centrifuging at 50,000×g at 4° C. for 15 minutes was again taken up in 25 ml of tris buffer and centrifuged under the above conditions. The supernatant was discarded and the pellet obtained was incubated in 25 ml of tris buffer at 37° C. for 30 minutes and then centrifuged again at 50,000×g at 4° C. for 15 minutes. Finally, the pellet obtained was mixed with tris buffer to obtain a homogenate dilution of 1:500 (based on the weight of the striata).
1 ml aliquots of the membrane preparation were incubated with 1 ml of a solution of 0.25 nM [^3 H]-spiperone ([…], Messrs. DuPont NEN) and at increasing concentrations of the test substance (10^-11 to 10^-4 M) at ambient temperature for one hour. Incubation was ended by the addition of 5 ml of ice cold tris buffer and filtration using Whatman GF/B filters. The filters were washed twice, each time with 5 ml of ice cold buffer. The radioactivity of the filters was determined by liquid scintillation measurement in Instagel^(R) (Messrs. Canberra Packard). Non-specific binding was determined in the presence of 10^-5 M haloperidol (Sigma Chemical Co.).
(§2) Displacement curves were obtained from the data using the TOPFIT programming package (G. Heinzel in "Pharmacokinetics During Drug Development: Data Analysis and Evaluation Techniques", G. Bozler and J. M. van Rossum Eds., G. Fischer Verlag, Stuttgart 1982, 207).

The next test has as its target T1, alpha-2 receptors (Rattus norvegicus, UniProt P22909).
T1 sequence (P22909 1-465): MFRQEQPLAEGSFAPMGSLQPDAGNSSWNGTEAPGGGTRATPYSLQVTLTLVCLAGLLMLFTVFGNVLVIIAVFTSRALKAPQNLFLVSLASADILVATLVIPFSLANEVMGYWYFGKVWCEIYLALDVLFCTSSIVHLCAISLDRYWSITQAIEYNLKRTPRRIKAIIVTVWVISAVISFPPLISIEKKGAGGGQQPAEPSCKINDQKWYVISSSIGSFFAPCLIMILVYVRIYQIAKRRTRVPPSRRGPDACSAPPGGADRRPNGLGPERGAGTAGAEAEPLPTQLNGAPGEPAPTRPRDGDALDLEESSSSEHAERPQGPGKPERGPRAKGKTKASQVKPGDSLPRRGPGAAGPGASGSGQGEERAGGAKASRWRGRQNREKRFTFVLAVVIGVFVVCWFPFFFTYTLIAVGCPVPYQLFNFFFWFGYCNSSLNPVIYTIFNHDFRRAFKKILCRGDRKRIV
The experiment in a line: affinity for alpha-2 receptors by displacement experiments with [3H]-clonidine (rat cortex membranes). As to conditions: read-out: α2-IC50.

The target of test [1] is T2, serotonin-1A(5-HT1A) receptors (Rattus norvegicus, UniProt P19327).
T2 construct: The frontal cortex was dissected out; from tissue; host or cells: rat frontal cortex homogenate (Chbb:Thom strain)
T2 sequence (P19327 1-422): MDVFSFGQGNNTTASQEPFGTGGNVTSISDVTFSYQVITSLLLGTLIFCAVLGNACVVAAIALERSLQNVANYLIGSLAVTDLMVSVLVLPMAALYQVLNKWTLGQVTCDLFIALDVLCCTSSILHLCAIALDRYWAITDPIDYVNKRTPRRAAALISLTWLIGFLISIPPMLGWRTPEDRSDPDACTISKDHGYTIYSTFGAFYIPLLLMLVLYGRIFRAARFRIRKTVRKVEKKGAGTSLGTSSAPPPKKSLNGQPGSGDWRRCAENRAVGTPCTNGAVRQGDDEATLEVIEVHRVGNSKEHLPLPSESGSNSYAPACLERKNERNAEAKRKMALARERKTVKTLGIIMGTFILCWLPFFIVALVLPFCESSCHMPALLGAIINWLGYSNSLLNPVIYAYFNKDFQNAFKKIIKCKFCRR
The experiment in a line: affinity for serotonin-1A (5-HT1A) receptors by displacement experiments with [3H]-8-OH-DPAT (rat frontal cortex). The protocol:
3. […] (Method of S. J. Peroutka, J. Neurochem. 47, 529 (1986), modified according to H. Gozlan et al., J. Receptor Research 7. 195 (1987))
A male rat (Chbb:Thom strain weighing about 200 g) was decapitated. The brain was removed and placed in ice-cold buffer (50 mmol/1 tris-HCl plus hydrochloric acid ad pH =7.4 at ambient temperature). The frontal cortex was dissected out; its moist weight was determined. It was homogenised in 40 times its volume of buffer (Polytron, position 6, 10 seconds), then centrifuged for 20 minutes at 45,000×g in the refrigerated centrifuge. The pellet was washed in 100 times its volume of buffer and centrifuged again as described above. The resulting pellet was resuspended in 40 times its volume of buffer and pre-incubated for 10 minutes at 37° C. Sixty times the volume of buffer were added and centrifuging was carried out as above. The resulting pellet was washed with 100 times the volume of buffer and centrifuged as above. The pellet was resuspended in buffer (0.8 ml/10 mg) and briefly homogenised in the Polytron. This homogenised tissue was cooled in ice until ready for incubation.
Incubation was stopped by rapid filtering through Whatman GF/B filters; rinsing was carried out twice, each time with 5 ml of ice cold buffer (Filter Prep, Messrs. Ismatec). The radioactivity of the filters was determined by liquid scintillation measurement.
(§3) Specific binding is obtained from total binding minus non-specific binding.

The target in test [2] is T3, serotonin-2(5-HT2)-receptors (Rattus norvegicus, UniProt P14842).
T3 construct: The frontal cortex was dissected out and placed in ice cold 0.32 M saccharose solution; from tissue; host or cells: rat frontal cortex homogenate (Chbb:Thom strain)
The experiment in a line: affinity for serotonin-2 (5-HT2) receptors by displacement experiments with [3H]-spiperone (rat frontal cortex). How it is done: as §3
A male rat (Chbb:Thom strain, about 200 g) was decapitated. The brain was removed. The frontal cortex was dissected out and placed in ice cold 0.32 M saccharose solution; its moist weight was determined. It was homogenised in 10 times the volume (0.32 M) of saccharose solution for 1 minute at 800 rpm in a Potter S (made by Braun of Melsungen). The homogenised material was centrifuged for 10 minutes at 1000×g (=3,000 rpm with a rotor 8×38 ml) in a refrigerated centrifuge. The supernatant was decanted off and homogenised (Polytron, position 5, 1 minute); the sediment was discarded. 5 ml (=0.5 g moist weight) of the tissue suspension thus obtained were made up to 40 ml with buffer (50 mm tris-HCl; pH=7.7 at ambient temperature).
0.8 ml of the buffered homogenised tissue (=10 mg moist weight) were incubated with 0.1 ml of a solution of [^3 H]-spiperone (about 0.2 nmol/1 final concentration) and with 0.1 ml of a solution of the test substance (increasing concentration) for 15 minutes at 37° C. (triple measurement). Incubation was stopped by rapid filtering through a Whatman GF/B filter; rinsing was carried out 3 times, each time with 5 ml of ice cold buffer within a maximum of 10 seconds (Filter Prep Messrs. Ismatec). The radioactivity of the filters was determined by liquid scintillation measurement.
The specific binding is obtained from the total binding minus the non-specific binding. The averages of the triple measurements are entered in a system of coordinates as in 1.3. The IC50 value is the concentration which inhibits the specific binding of [^3 H]-spiperone by 50%.

A further test has as its target T4, dopamine D1-receptors (Rattus norvegicus, UniProt P18901).
T4 construct: The striata were dissected out, weighed and homogenised in 25 volumes of tris buffer; from tissue; host or cells: rat striatum membranes (Chbb:Thom strain), prepared as for the D2 assay
The experiment in a line: affinity for dopamine D1-receptors by displacement experiments with [3H]-Sch 23390. The protocol: as §1, §2
7. Determining the affinity for dopamine D1-receptors by displacement experiments with [^3 H1-Sch 23390
The membrane preparation and data analysis were carried out as described for determining the affinity for dopamine D2 - receptors.
1 ml aliquots of the membrane preparation were incubated for 1 hour at ambient temperature with 1 ml of a solution of 0.25 nM [^3 H]-Sch 23390 (2.44 TBq/mmol, Messrs. DuPont NEN) and with increasing concentrations of the test substance (10^-11 to 10^-4 M). Incubation was ended by the addition of 5 ml of ice cold tris buffer and filtration through Whatman GF/B filters. The filters were washed twice, each time with 5 ml of ice cold buffer. The radioactivity of the filters was determined by liquid scintillation measurement in Instagel(R) (Messrs. Canberra Packard).
The non-specific binding was determined in the presence of 10^-6 M (-)-butaclamol (Research Biochemicals Inc.).

Where [3] appears, read: [3H]-8-OH-DPAT, rat frontal cortex, read-out: 5-HT1A-Ki.

Read-outs that look alike come from different tables or passages of the source.

Experimental findings from US5068325A, “4,5,7,8-tetrahydro-6H-thiazolo[5,4-d]azepines, their preparation and their use as pharmaceutical compositions” (priority 1988, dated 1991) are described below.

dopamine D2-receptors, sequence (P61169 whole entry): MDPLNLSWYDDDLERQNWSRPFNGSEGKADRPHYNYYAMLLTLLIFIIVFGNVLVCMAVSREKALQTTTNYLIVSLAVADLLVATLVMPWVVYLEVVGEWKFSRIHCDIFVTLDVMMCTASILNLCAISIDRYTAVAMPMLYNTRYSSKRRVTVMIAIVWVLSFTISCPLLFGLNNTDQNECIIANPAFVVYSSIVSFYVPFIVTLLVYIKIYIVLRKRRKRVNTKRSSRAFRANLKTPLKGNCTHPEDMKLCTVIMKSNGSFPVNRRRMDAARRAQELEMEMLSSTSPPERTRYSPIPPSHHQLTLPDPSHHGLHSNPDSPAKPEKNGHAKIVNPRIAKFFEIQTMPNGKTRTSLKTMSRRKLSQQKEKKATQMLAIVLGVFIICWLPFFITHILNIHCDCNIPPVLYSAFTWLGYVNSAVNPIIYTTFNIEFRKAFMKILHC
T4 sequence (P18901 whole entry): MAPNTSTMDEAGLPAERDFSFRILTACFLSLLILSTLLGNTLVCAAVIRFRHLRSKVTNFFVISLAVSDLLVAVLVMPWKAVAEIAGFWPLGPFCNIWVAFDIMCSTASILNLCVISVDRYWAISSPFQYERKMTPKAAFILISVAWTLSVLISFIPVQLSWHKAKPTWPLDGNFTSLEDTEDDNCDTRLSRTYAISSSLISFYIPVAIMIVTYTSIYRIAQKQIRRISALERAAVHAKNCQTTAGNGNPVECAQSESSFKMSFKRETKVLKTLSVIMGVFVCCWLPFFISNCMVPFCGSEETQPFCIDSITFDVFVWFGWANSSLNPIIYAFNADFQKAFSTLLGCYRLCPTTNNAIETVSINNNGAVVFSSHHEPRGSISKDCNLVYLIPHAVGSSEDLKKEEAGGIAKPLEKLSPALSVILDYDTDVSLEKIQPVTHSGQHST
T3 sequence (P14842 whole entry): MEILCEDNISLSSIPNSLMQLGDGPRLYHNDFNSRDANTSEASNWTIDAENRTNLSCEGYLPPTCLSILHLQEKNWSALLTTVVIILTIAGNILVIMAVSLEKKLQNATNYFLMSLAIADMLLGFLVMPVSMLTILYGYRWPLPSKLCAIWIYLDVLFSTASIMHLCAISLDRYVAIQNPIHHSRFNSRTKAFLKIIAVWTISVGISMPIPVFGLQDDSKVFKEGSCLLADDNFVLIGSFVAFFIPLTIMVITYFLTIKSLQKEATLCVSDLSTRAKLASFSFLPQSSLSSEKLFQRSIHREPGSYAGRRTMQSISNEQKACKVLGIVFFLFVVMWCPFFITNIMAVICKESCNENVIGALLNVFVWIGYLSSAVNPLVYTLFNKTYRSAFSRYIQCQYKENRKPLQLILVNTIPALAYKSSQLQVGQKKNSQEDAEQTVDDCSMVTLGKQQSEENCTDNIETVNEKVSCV
Method for alpha-2 receptors: Determination of the affinity for alpha-2 receptors by displacement experiments with [^3 H] clonidine (Modified Method of B. Jarrott, W. J. Louis and R. J. Summers, Biochem. Pharmacol. 27, 141 (1979))
A male rat (Chbb:Thom strain weighing about 200 g) was killed by a blow to the back of the neck. The brain was removed and the cortex dissected out, weighed and homogenised in 25 volumes of tris buffer (50 mM tris- HCl, pH 7.50) for 30 seconds in an Ultra-Turrax at maximum speed, followed by 10° Cycles in a Potter- Elvehjem at 1400 rpm. The homogenised material was combined with tris buffer to obtain a homogenate dilution of 1:50 (based on the weight of the cortex).
1 ml aliquots of the membrane preparation were incubated for three hours at ambient temperature with 1 ml of a solution of 1 nM of [^3 H]-clonidine (2.2 TBq/mmol, Messrs. DuPont NEN) and with increasing concentrations of the test substance (10^-11 to 10^-4 M). Incubation was ended by the addition of 5 ml of ice-cold tris buffer and filtration through Whatman GF/B filters. The filters were washed twice, each time with 5 ml of ice cold buffer. The radioactivity of the filters was determined by liquid scintillation measurement in Instagel(R) (Messrs. Canberra Packard). The non-specific binding was determined in the presence of 10^-5 M of oxymetazoline (Sigma Chemical Co.).

One may read the Ki as a dissociation constant, usually derived from enzyme kinetics or from competition with a known ligand. As a reminder, the IC50 is the concentration needed to halve the response being measured. In the case of `Nc1nc2c(s1)CCN(CC#Cc1ccccc1)CC2` [Example 4d, 2-Amino-6-(3-phenyl-2-propyn-1-yl)-4,5,7,8-tetrahydro-6H-thiazolo[5,4-d]azepine], the inhibition constant (Ki) came out at 10 nM at dopamine D2-receptors, 14200 nM in test [1] (setting [3]) and 1800 nM in test [2]. Also, the “α2-IC50 / D2-Ki” value on dopamine D2-receptors amounted to 89. Besides, on alpha-2 receptors, the IC50 was determined as 890 nM.
For `Nc1nc2c(s1)CCN(CC=Cc1ccc(-c3ccccc3)cc1)CC2` [Example 4w, 2-Amino-6-(3-(4-biphenyl)allyl)-4,5,7,8-tetrahydro-6H-thiazolo[5,4-d]azepine], in that order: 3 nM, 36300 nM, 1030 nM, 733 and 2200 nM.
`Nc1nc2c(s1)CCN(CCC=Cc1ccccc1)CC2` [Example 8k, 2-Amino-6-(4-phenyl-3-buten-1-yl)-4,5,7,8-tetrahydro-6H-thiazolo[5,4-d]azepine] returned a Ki on dopamine D1-receptors of 510 nM.
As for `Nc1nc2c(s1)CCN(C/C=C\c1ccccc1)CC2` [Example 12b, (Z)-2-Amino-6-(3-phenyl™2-propen-I-yl)-4,5,7,8-tetrahydro-6H-thiazolo[5,4-d]azepine], the inhibitory constant (Ki) was found to be 4.4 nM at dopamine D2-receptors, 53000 nM in test [1] (setting [3]) and 860 nM in test [2]. For the same compound, the “α2-IC50 / D2-Ki” value at dopamine D2-receptors is reported as 450. Further, the IC50 on alpha-2 receptors turned out to be 2000 nM.
Turning to `O=C(c1ccc(F)cc1)C1CCN(CCn2c(=O)[nH]c3ccccc3c2=O)CC1` [Ketanserine, reference compound], the affinity in test [1], expressed as Ki, was 2830 nM.
`CCCN(CCC)C1CCc2cccc(O)c2C1` (stereo not drawn) [Example 8-OH-DPAT, 8-OH-DPAT, reference compound]: in test [2], the inhibition constant (Ki) was found to be 2880 nM.
In turn, `Nc1nc2c(s1)CCN(CC1=Cc3ccccc3CC1)CC2` [Example 1b, 2-Amino-6-(1,2-dihydronaphthalen-3-yl-methyl)-4,5,7,8-tetrahydro-6H-thiazolo[5,4-d]azepine] registered a Ki on dopamine D1-receptors of 800 nM.
For the compound `Nc1nc2c(s1)CCN(CCc1ccccc1)CC2` [Compound C, 2amino-6-(2phenylethyl)-4,5,7,8-tetrahydro-6H-thiazolo[5,4d]azepine, reference compound], on dopamine D2-receptors, the Ki came to 410 nM and the “α2-IC50 / D2-Ki” value is on record as 12.4. Moreover, on alpha-2 receptors, the IC50 came out at 5100 nM. The same compound came in with a Ki on dopamine D1-receptors of 11000 nM.
With `Nc1nc2c(s1)CCN(CC=Cc1ccc3ccccc3c1)CC2` [Example 4u, 2-Amino-6-(3-(2-naphthyl)allyl)-4,5,7,8-tetrahydro-6H-thiazolo[5,4-d]azepine], the Ki worked out at 6.9 nM at dopamine D2-receptors, 14000 nM in test [1] (setting [3]) and 350 nM in test [2]. At dopamine D2-receptors, the “α2-IC50 / D2-Ki” value is 318. Further, on alpha-2 receptors, the IC50 amounted to 2200 nM.
On to `Nc1nc2c(s1)CCN(CC=Cc1ccccc1OCc1ccccc1)CC2` [Example 4x, 2-Amino-6-(3-(2-benzyloxy-phenyl)allyl)-4,5,7,8-tetrahydro-6H-thiazolo[5,4-d]azepine], for which affinity at dopamine D1-receptors was put at a Ki of 400 nM.
Turning to `Nc1nc2c(s1)CCN(CC1CC1c1ccccc1)CC2` (stereo not drawn) [Example 17, 2-Amino-6-(2-phenyl-1-cyclopropyl-methyl)-4,5,7,8-tetrahydro-6H-thiazolo[5,4-d]azepine], the inhibitory constant (Ki) in test [1] (setting [3]) was 1060 nM; in test [2], 339 nM.
Consider `Nc1nc2c(s1)CCN(CC=Cc1ccccc1)CC2` [Example 1, 2-Amino-6-cinnamyl-4,5,7,8-tetrahydro-6H-thiazolo-[5,4-d]azepine], for which the Ki in test [1] (setting [3]) turned out to be 4340 nM; in test [2], 356 nM.
